The term IC50 denotes the concentration needed to halve the response being measured.

A short description of the test: Inhibition of L-type amino acid transporter in human LNCAP cells assessed as reduction in [3H]-L-Leucine uptake after 15 mins by liquid scintillation counting method. Type of test: cell-based.

In the case of `CC(=O)O[C@@H]1C[C@@H](C)[C@@]23C[C@@H](C(=O)[C@H](OC(=O)c4ccccc4)[C@]2(C)[C@H]1OC(=O)c1ccoc1)C(C)(C)O3`, the IC50 came out at 13.4 µM. For `CC(=O)O[C@@H]1C[C@@H](C)[C@@]23C[C@@H](C[C@H](OC(=O)c4ccccc4)[C@]2(C)[C@H]1OC(=O)c1ccccc1)C(C)(C)O3`, the IC50 amounted to 7 µM.

As for `CC(=O)O[C@@H]1C[C@@H](C)[C@@]23C[C@@H](C[C@H](OC(=O)c4ccoc4)[C@]2(C)[C@H]1OC(=O)c1ccoc1)C(C)(C)O3`, the IC50 was found to be 75.3 µM. Next, `C[C@@H]1CC[C@H](OC(=O)c2ccccc2)[C@@]2(C)[C@@H](OC(=O)c3ccccc3)C[C@@H]3C[C@]12OC3(C)C`: 27.6 µM; `CC(=O)O[C@@H]1[C@@H]2C[C@]3(OC2(C)C)[C@H](C)C[C@@H](OC(C)=O)[C@H](OC(=O)c2ccoc2)[C@@]3(C)[C@H]1OC(=O)c1ccccc1`: 15.2 µM.

Turning to `CC(=O)O[C@@H]1C[C@@H](C)[C@@]23C[C@@H](C[C@H](OC(=O)c4ccccc4)[C@]2(C)[C@H]1OC(=O)c1ccoc1)C(C)(C)O3`, the IC50 stood at 34.5 µM. As for `C[C@@H]1CC[C@H](OC(=O)c2ccoc2)[C@@]2(C)[C@@H](OC(=O)c3ccccc3)C[C@@H]3C[C@]12OC3(C)C`, the concentration for half-maximal inhibition (IC50) was determined as 19.7 µM. Next, `CC(=O)O[C@@H]1C[C@@H](C)[C@@]23C[C@@H]([C@@H](O)[C@H](OC(=O)c4ccccc4)[C@]2(C)[C@H]1OC(=O)c1ccccc1)C(C)(C)O3`: 82.3 µM; `CC(=O)O[C@@H]1C[C@@H](C)[C@@]23C[C@@H]([C@@H](O)[C@H](OC(=O)c4ccccc4)[C@]2(C)[C@H]1OC(=O)c1ccoc1)C(C)(C)O3`: 98.9 µM.

(Values after ChEMBL document CHEMBL4190198, “Celastrofurans A-G: Dihydro-β-agarofurans from the Australian Rainforest Vine Celastrus subspicata and Their Inhibitory Effect on Leucine Transport in Prostate Cancer Cells” (J Nat Prod, 2017).)
